Experiments:
[1] = system: giant foxtail; assay: Test A preemergence; assay type: in vivo, Setaria faberii; conditions: for Plant response rating, Foxtail, Giant: 125 g ai/ha, 0 to 100 scale where 0 is no effect and 100 is complete control; for Foxtail, Giant plant response rating: 500 g ai/ha, 0 to 100 scale, 0 no effect, 100 complete control, approx. 10 days
Outline: (§1)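 Visual 0–100 rating (100 = complete control) taken about 10 d post-treatment relative to untreated checks. Preemergence: directed soil spray on sown loam/sand pots. Postemergence: seedlings 2–10 cm, 1–2 leaf. Non-phytotoxic solvent formulation with surfactant.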

[2] = system: Heteranthera limosa; assay: Test B flooded paddy test; assay type: in vivo; conditions: Flood, 250 g ai/ha; 0 to 100 scale where 0 is no effect and 100 is complete control
Outline: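 2-leaf stage plants; pots flooded to 3 cm, compound added to paddy water, depth maintained. Greenhouse 13–15 d. Visual rating vs untreated controls, 0 (no effect) to 100 (complete control); dash = no result.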

[3] = system: velvetleaf; assay: Test C preemergence; assay type: in vivo, Abutilon theophrasti; conditions: for Velvetleaf plant response rating: preemergence; for Plant response rating, Velvetleaf: Preemergence, 31 g ai/ha, scale 0 to 100, 0 no effect, 100 complete control
Outline: (§2)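 Visual injury score versus untreated controls, 0 = no effect, 100 = complete control, taken 13 to 15 days after treatment in the greenhouse. Pre-emergence pots held loam/sand; post-emergence plants grew in sphagnum peat/vermiculite mix and were sprayed at the 1- to 4-leaf stage.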

[4] = system: chickweed; assay: Test C postemergence; assay type: in vivo, Stellaria media; conditions: for Plant response rating, Chickweed / Chickweed plant response rating: scale 0 to 100 (0 no effect, 100 complete control); for Chickweed plant response rating: 16 g ai/ha
Outline: as §2

[5] = system: pigweed; assay: Test A postemergence; assay type: in vivo, Amaranthus retroflexus; conditions: 0 to 100 scale where 0 is no effect and 100 is complete control
Outline: as §1

[6] = system: wheat, winter; assay: Test C postemergence; assay type: in vivo, Triticum aestivum; conditions: for Plant response rating, Wheat: scale 0 to 100 (0 no effect, 100 complete control)
Outline: as §2

[7] = system: Italian ryegrass; assay: Test C preemergence; assay type: in vivo, Lolium multiflorum; conditions: for Ryegrass, Italian plant response rating: preemergence; for Plant response rating, Ryegrass, Italian: Preemergence, 31 g ai/ha, scale 0 to 100, 0 no effect, 100 complete control
Outline: as §2

[8] = system: morningglory; assay: Test C preemergence; assay type: in vivo, Ipomoea coccinea; conditions: for Morningglory plant response rating: preemergence; for Plant response rating, Morningglory: Preemergence, 31 g ai/ha, scale 0 to 100, 0 no effect, 100 complete control
Outline: as §2

[9] = system: large (Lg) crabgrass; assay: Test A preemergence; assay type: in vivo, Digitaria sanguinalis; conditions: for Plant response rating, Crabgrass, Large: 125 g ai/ha, 0 to 100 scale where 0 is no effect and 100 is complete control; for Crabgrass, Large plant response rating: 500 g ai/ha, 0 to 100 scale, 0 no effect, 100 complete control, approx. 10 days
Outline: as §1

[10] = system: oilseed rape; assay: Test C preemergence; assay type: in vivo, Brassica napus; conditions: for Oilseed Rape plant response rating: preemergence; for Plant response rating, Oilseed Rape: Preemergence, 31 g ai/ha, scale 0 to 100, 0 no effect, 100 complete control
Outline: as §2

[11] = system: corn; assay: Test C postemergence; assay type: in vivo, Zea mays; conditions: for Plant response rating, Corn / Corn plant response rating: scale 0 to 100 (0 no effect, 100 complete control); for Corn plant response rating: 16 g ai/ha
Outline: as §2

[12] = system: galium; assay: Test C preemergence; assay type: in vivo, Galium aparine; conditions: for Galium plant response rating: preemergence; for Plant response rating, Galium: Preemergence, 31 g ai/ha, scale 0 to 100, 0 no effect, 100 complete control
Outline: as §2

[13] = system: velvetleaf; assay: Test A preemergence; assay type: in vivo, Abutilon theophrasti; conditions: for Plant response rating, Velvetleaf: 125 g ai/ha, 0 to 100 scale where 0 is no effect and 100 is complete control
Outline: as §1

[14] = system: large (Lg) crabgrass; assay: Test C postemergence; assay type: in vivo, Digitaria sanguinalis; conditions: for Plant response rating, Crabgrass, Large / Crabgrass, Large plant response rating: scale 0 to 100 (0 no effect, 100 complete control); for Crabgrass, Large plant response rating: 16 g ai/ha
Outline: as §2

[15] = system: johnsongrass; assay: Test C preemergence; assay type: in vivo, Sorghum halepense; conditions: for Johnsongrass plant response rating: preemergence; for Plant response rating, Johnsongrass: Preemergence, 31 g ai/ha, scale 0 to 100, 0 no effect, 100 complete control
Outline: as §2

[16] = 62 g ai/ha, scale 0 (no effect) to 100 (complete control)
[17] = 125 g ai/ha, scale 0 (no effect) to 100 (complete control)
[18] = 250 g ai/ha, scale 0 (no effect) to 100 (complete control)
[19] = Postemergence, 31 g ai/ha, 13 to 15 days
[20] = 16 g ai/ha, scale 0 to 100 (0 no effect, 100 complete control)
[21] = postemergence, visual rating, 13 to 15 days
[22] = 125 g ai/ha, postemergence, visual rating

SMILES: N#Cc1cccc(Oc2ncc(F)cn2)c1-n1cc(Cl)cn1 [Compound 73]
- Plant response rating, Foxtail, Giant [1]: 100
- Foxtail, Giant plant response rating [1]: 100
- Plant response rating, Ducksalad [2]: 70
- Velvetleaf plant response rating [3, 16]: 75
- Velvetleaf plant response rating [3, 17]: 100
- Velvetleaf plant response rating [3, 18]: 100
- Plant response rating, Velvetleaf [3]: 60
- Plant response rating (0 to 100), Chickweed ([4]; 125 g ai/ha, postemergence): 50
- Plant response rating (0 to 100), Chickweed ([4]; 250 g ai/ha, postemergence): 80
- Plant response rating, Chickweed [4, 19]: 50
- Plant response rating, Chickweed ([4]; Postemergence, 62 g ai/ha): 50
- Plant response rating, Pigweed ([5]; 125 g ai/ha): 100
- Plant response rating, Pigweed ([5]; 500 g ai/ha): 100
- Plant response rating (0 to 100), Wheat ([6]; 125 g ai/ha, postemergence): 0
- Plant response rating (0 to 100), Wheat ([6]; 250 g ai/ha, postemergence): 5
- Plant response rating, Wheat [6, 19]: 0
- Plant response rating, Wheat ([6]; Postemergence, 62 g ai/ha): 0
- Ryegrass, Italian plant response rating [7, 16]: 5
- Ryegrass, Italian plant response rating [7, 17]: 55
- Ryegrass, Italian plant response rating [7, 18]: 70
- Plant response rating, Ryegrass, Italian [7]: 0
- Morningglory plant response rating [8, 16]: 45
- Morningglory plant response rating [8, 17]: 95
- Morningglory plant response rating [8, 18]: 98
- Plant response rating, Morningglory [8]: 45
- Plant response rating, Crabgrass, Large [9]: 100
- Crabgrass, Large plant response rating [9]: 100
- Oilseed Rape plant response rating [10, 16]: 95
- Oilseed Rape plant response rating [10, 17]: 100
- Oilseed Rape plant response rating [10, 18]: 100
- Plant response rating, Oilseed Rape [10]: 85
- Plant response rating (0 to 100), Corn ([11]; 125 g ai/ha, postemergence): 10
- Plant response rating (0 to 100), Corn ([11]; 250 g ai/ha, postemergence): 10
- Plant response rating, Corn [11, 19]: 5
- Plant response rating, Corn ([11]; Postemergence, 62 g ai/ha): 5
- Galium plant response rating [12, 16]: 90
- Galium plant response rating [12, 17]: 90
- Galium plant response rating [12, 18]: 95
- Plant response rating, Galium [12]: 85
- Plant response rating, Velvetleaf [13]: 100
- Velvetleaf plant response rating ([13]; 500 g ai/ha, 0 to 100 scale, 0 no effect, 100 complete control, approx. 10 days): 100
- Plant response rating (0 to 100), Crabgrass, Large ([14]; 125 g ai/ha, postemergence): 10
- Plant response rating (0 to 100), Crabgrass, Large ([14]; 250 g ai/ha, postemergence): 20
- Plant response rating, Crabgrass, Large [14, 19]: 5
- Plant response rating, Crabgrass, Large ([14]; Postemergence, 62 g ai/ha): 10
- Johnsongrass plant response rating [15, 16]: 35
- Johnsongrass plant response rating [15, 17]: 75
- Johnsongrass plant response rating [15, 18]: 98
- Plant response rating, Johnsongrass [15]: 10

SMILES: CCOc1cnn(-c2c(C#N)cccc2Oc2ncc(Cl)cn2)c1 [Compound 92]
- Plant response rating, Foxtail, Giant [1]: 100
- Foxtail, Giant plant response rating [1]: 100
- Plant response rating, Ducksalad [2]: 95
- Velvetleaf plant response rating [3, 20]: 30
- Velvetleaf plant response rating [3, 16]: 100
- Velvetleaf plant response rating [3, 17]: 100
- Plant response rating, Velvetleaf [3]: 90
- Chickweed plant response rating [4, 21]: 50
- Plant response rating (0 to 100), Chickweed ([4]; 125 g ai/ha, postemergence): 70
- Plant response rating, Chickweed [4, 19]: 60
- Plant response rating, Chickweed ([4]; Postemergence, 62 g ai/ha): 60
- Plant response rating, Pigweed ([5]; 125 g ai/ha): 100
- Plant response rating, Pigweed ([5]; 500 g ai/ha): 100
- Plant response rating (0 to 100), Wheat ([6]; 125 g ai/ha, postemergence): 5
- Plant response rating, Wheat [6, 19]: 0
- Plant response rating, Wheat ([6]; Postemergence, 62 g ai/ha): 0
- Ryegrass, Italian plant response rating [7, 20]: 0
- Ryegrass, Italian plant response rating [7, 16]: 50
- Ryegrass, Italian plant response rating [7, 17]: 85
- Plant response rating, Ryegrass, Italian [7]: 10
- Morningglory plant response rating [8, 20]: 10
- Morningglory plant response rating [8, 16]: 98
- Morningglory plant response rating [8, 17]: 98
- Plant response rating, Morningglory [8]: 25
- Plant response rating, Crabgrass, Large [9]: 100
- Crabgrass, Large plant response rating [9]: 100
- Oilseed Rape plant response rating [10, 20]: 80
- Oilseed Rape plant response rating [10, 16]: 85
- Oilseed Rape plant response rating [10, 17]: 95
- Plant response rating, Oilseed Rape [10]: 80
- Corn plant response rating [11, 21]: 5
- Plant response rating (0 to 100), Corn ([11]; 125 g ai/ha, postemergence): 5
- Plant response rating, Corn [11, 19]: 5
- Plant response rating, Corn ([11]; Postemergence, 62 g ai/ha): 5
- Galium plant response rating [12, 20]: 80
- Galium plant response rating [12, 16]: 95
- Galium plant response rating [12, 17]: 98
- Plant response rating, Galium [12]: 85
- Plant response rating, Velvetleaf [13]: 100
- Crabgrass, Large plant response rating [14, 21]: 5
- Plant response rating (0 to 100), Crabgrass, Large ([14]; 125 g ai/ha, postemergence): 10
- Plant response rating, Crabgrass, Large [14, 19]: 5
- Plant response rating, Crabgrass, Large ([14]; Postemergence, 62 g ai/ha): 5
- Johnsongrass plant response rating [15, 20]: 0
- Johnsongrass plant response rating [15, 16]: 70
- Johnsongrass plant response rating [15, 17]: 85
- Plant response rating, Johnsongrass [15]: 5

SMILES: N#Cc1cnn(-c2c(C#N)cccc2Oc2ncc(F)cn2)c1 [Compound 111]
- Plant response rating, Foxtail, Giant [1]: 100
- Foxtail, Giant plant response rating [1]: 100
- Plant response rating, Ducksalad [2]: 70
- Velvetleaf plant response rating [3, 20]: 60
- Velvetleaf plant response rating [3, 16]: 90
- Velvetleaf plant response rating [3, 17]: 100
- Plant response rating, Velvetleaf [3]: 60
- Chickweed plant response rating [4, 21]: 50
- Plant response rating, Chickweed [4, 22]: 95
- Plant response rating, Chickweed ([4]; Postemergence, 62 g ai/ha): 75
- Plant response rating, Pigweed ([5]; 500 g ai/ha): 100
- Plant response rating, Wheat [6, 22]: 5
- Plant response rating, Wheat ([6]; Postemergence, 62 g ai/ha): 0
- Ryegrass, Italian plant response rating [7, 20]: 0
- Ryegrass, Italian plant response rating [7, 16]: 40
- Ryegrass, Italian plant response rating [7, 17]: 60
- Plant response rating, Ryegrass, Italian [7]: 0
- Morningglory plant response rating [8, 20]: 20
- Morningglory plant response rating [8, 16]: 85
- Morningglory plant response rating [8, 17]: 100
- Plant response rating, Morningglory [8]: 45
- Plant response rating, Crabgrass, Large [9]: 100
- Crabgrass, Large plant response rating [9]: 100
- Oilseed Rape plant response rating [10, 20]: 60
- Oilseed Rape plant response rating [10, 16]: 98
- Oilseed Rape plant response rating [10, 17]: 100
- Plant response rating, Oilseed Rape [10]: 90
- Corn plant response rating [11, 21]: 5
- Plant response rating, Corn [11, 22]: 15
- Plant response rating, Corn ([11]; Postemergence, 62 g ai/ha): 10
- Galium plant response rating [12, 20]: 90
- Galium plant response rating [12, 16]: 100
- Galium plant response rating [12, 17]: 75
- Plant response rating, Galium [12]: 100
- Plant response rating, Velvetleaf [13]: 70
- Crabgrass, Large plant response rating [14, 21]: 5
- Plant response rating, Crabgrass, Large [14, 22]: 35
- Plant response rating, Crabgrass, Large ([14]; Postemergence, 62 g ai/ha): 10
- Johnsongrass plant response rating [15, 20]: 0
- Johnsongrass plant response rating [15, 16]: 25
- Johnsongrass plant response rating [15, 17]: 80
- Plant response rating, Johnsongrass [15]: 5

Source: patent US9695155B2, “Herbicidal substituted pyrimidinyloxy benzene compounds” (E. I. DU PONT DE NEMOURS AND COMPANY, priority 2013, dated 2017)
